Assay [1] has as its target T1, ALK5 kinase (Homo sapiens, UniProt P36897).
T1 sequence (P36897 34-503): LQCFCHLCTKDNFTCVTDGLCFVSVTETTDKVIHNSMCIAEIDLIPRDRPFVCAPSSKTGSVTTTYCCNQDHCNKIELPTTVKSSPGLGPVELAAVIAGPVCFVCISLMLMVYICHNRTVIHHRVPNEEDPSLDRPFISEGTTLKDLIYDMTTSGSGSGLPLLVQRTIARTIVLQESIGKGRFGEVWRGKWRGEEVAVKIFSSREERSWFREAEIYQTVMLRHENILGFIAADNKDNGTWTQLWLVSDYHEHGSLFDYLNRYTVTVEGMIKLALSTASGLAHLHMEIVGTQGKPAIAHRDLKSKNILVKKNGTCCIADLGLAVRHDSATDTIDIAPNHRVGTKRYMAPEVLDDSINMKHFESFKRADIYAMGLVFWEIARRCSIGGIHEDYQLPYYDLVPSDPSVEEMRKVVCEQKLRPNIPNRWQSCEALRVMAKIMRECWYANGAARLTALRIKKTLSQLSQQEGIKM
In words: LanthaScreen Eu Kinase Binding Assay. The settings on record: Kinase Tracer 178, Eu-anti-GST Antibody, read-out: IC50 Enzyme. The gist of the method: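 Compound (1% DMSO final) preincubated 30 min at RT with GST-tagged ALK5, then Eu-anti-GST antibody and Kinase Tracer 178 added for 60 min at RT. TR-FRET read at 340 nm excitation; 665/615 nm emission ratio falls as compound binding rises.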
In general terms: TR-FRET usually uses a lanthanide donor and a delayed reading to cut background.

In assay [2] the test system is TGF-β signaling. The assay can be described thus: Assay for evaluating cellular inhibition of TGF-β signaling, HEK293 (SBE reporter) luciferase reporter. It is filed as cell-based. The following applies: Homo sapiens; HEK293 (SBE reporter) stable cells, 0.5% FBS, 2 h pre-treatment, TGF-β1 2 ng/mL 24 h; read-out: IC50 HEK 293 Cell. How it is done:
[Example 2] Assay for Evaluating Cellular Inhibition of TGF-β Signaling
4T1 (SBE-luc2P) transient pool that have SBE-luc2P (hygro) expression plasmid or HEK293 (SBE reporter) stable cells (BPS bioscience) were seeded at 6×10^3 cells/well or 2.5×10^4 cells/well in 96-well plate, respectively. 4T1 (SBE-luc2P) transient pool were pre-treated with novel compound synthesized in Example 1 above in 0.2% FBS at approximately 60% confluence at 37° C. in 5% CO2. Also, HEK293 (SBE reporter) stable cells were pre-treated with each test compounds of formula in 0.5% FBS at approximately 80% confluence at 37° C. in 5% CO2. After 2 hours, cells were treated with TGF-β1 (2 ng/mL) for 24 h at 37° C. in 5% CO2. Cell lysates were prepared using Luciferase Assay (Promega) according to the manufacturer's instruction, and luminescence was measured by a plate reader, Biotek Synergy H1 (Vermont, USA).
In general terms: Reporter assays use an easily measured gene product as a stand-in for the process of interest.

Molecules are shown by their SMILES.

A word on the IC50: it is the concentration at which inhibition is half-maximal. As for `CCc1nc(-c2cccc(C)n2)c(Oc2ccnc(Nc3ccc(C(=O)OCC4CC4)cn3)c2)s1` [A-270], the IC50 in assay [1] and in assay [2] was under 100 nM each time. As to `CCc1nc(-c2cccc(C)n2)c(Oc2ccnc(Nc3ccc(C(=O)NCCN(C)C)cn3)c2)s1` [A-269, N-(2-(Dimethylamino)ethyl)-6-((4-((2-ethyl-4-(6-methylpyridin-2-yl)thiazol-5-yl)oxy)pyridin-2-yl)amino)nicotinamide], the IC50 in assay [1] and in assay [2] was under 100 nM throughout. In the case of `NC(=O)c1ccc(Nc2cc(Oc3oc(C4CC4)nc3-c3ccccc3)ccn2)nc1` [A-294, 6-((4-((2-Cyclopropyl-4-phenyloxazol-5-yl)oxy)pyridin-2-yl)amino)nicotinamide], the IC50 in assay [1] and in assay [2] was under 100 nM throughout. In the case of `O=C(O)c1ccc(Nc2cc(Oc3oc(C4CC4)nc3-c3ccccc3)ccn2)cc1` [A-295, 4-((4-((2-Cyclopropyl-4-phenyloxazol-5-yl)oxy)pyridin-2-yl)amino)benzoic acid], the IC50 in assay [1] and in assay [2] was under 100 nM throughout. Take `CCc1nc(-c2cccc(C)n2)c(Oc2ccnc(Nc3ccnc(C(N)=O)c3)c2)s1` [A-264, 4-((4-((2-Ethyl-4-(6-methylpyridin-2-yl)thiazol-5-yl)oxy)pyridin-2-yl)amino)picolinamide]: the IC50 in assay [1] and in assay [2] was under 100 nM in each case. `Cc1cccc(-c2nc(C3CC3)sc2Oc2ccnc(Nc3cccc(C(N)=O)n3)c2)n1` [A-278, 6-((4-((2-Cyclopropyl-4-(6-methylpyridin-2-yl)thiazol-5-yl)oxy)pyridin-2-yl)amino)picolinamide]: the IC50 in assay [1] and in assay [2] was under 100 nM in each case. With `Cc1cccc(-c2nc(C3CC3)sc2Oc2ccnc(Nc3cccc(S(N)(=O)=O)c3)c2)n1` [A-277, 3-((4-((2-Cyclopropyl-4-(6-methylpyridin-2-yl)thiazol-5-yl)oxy)pyridin-2-yl)amino)benzenesulfonamide], the IC50 in assay [1] and in assay [2] was under 100 nM throughout.

With `Cc1cccc(-c2nc(C3CC3)sc2Oc2ccnc(Nc3cc(C(N)=O)ccn3)c2)n1` [A-276, 2-((4-((2-Cyclopropyl-4-(6-methylpyridin-2-yl)thiazol-5-yl)oxy)pyridin-2-yl)amino)isonicotinamide], the IC50 in assay [1] and in assay [2] was under 100 nM in each case. `CCc1nc(-c2cccc(C)n2)c(Oc2ccnc(Nc3ccc(C(=O)OCCN(C)C)cn3)c2)s1` [A-271, 2-(Dimethylamino)ethyl 6-((4-((2-ethyl-4-(6-methylpyridin-2-yl)thiazol-5-yl)oxy)pyridin-2-yl)amino)nicotinate]: the IC50 in assay [1] and in assay [2] was under 100 nM in each case. Turning to `O=C(O)c1ccc(Nc2cc(Oc3oc(C4CC4)nc3-c3ccccc3)ccn2)nc1` [A-293, 6-((4-((2-Cyclopropyl-4-phenyloxazol-5-yl)oxy)pyridin-2-yl)amino)nicotinic acid], the IC50 in assay [1] and in assay [2] was under 100 nM each time. As to `CNC(=O)c1cccc(Nc2cc(Oc3sc(C4CC4)nc3-c3cccc(C)n3)ccn2)n1` [A-279, 6-((4-((2-Cyclopropyl-4-(6-methylpyridin-2-yl)thiazol-5-yl)oxy)pyridin-2-yl)amino)-N-methylpicolinamide], the IC50 in assay [1] and in assay [2] was under 100 nM each time. Take `CCc1nc(-c2ccccc2)c(Oc2ccnc(Nc3ccc(NCCN4CCCC4)cn3)c2)s1` [A-210, N^2-(4-((2-Ethyl-4-phenylthiazol-5-yl)oxy)pyridin-2-yl)-N^5-(2-(pyrrolidin-1-yl)ethyl)pyridine-2,5-diamine]: in assay [2], the IC50 was under 100 nM.

As to `CCc1nc(-c2cccc(C)n2)c(Oc2ccnc(Nc3cccc(NS(C)(=O)=O)c3)c2)s1` [A-272, N-(3-((4-((2-ethyl-4-(6-methylpyridin-2-yl)thiazol-5-yl)oxy)pyridin-2-yl)amino)phenyl)methanesulfonamide], the IC50 in assay [2] is under 100 nM. For the compound `CCc1nc(-c2cccc(C)n2)c(Oc2ccnc(Nc3ccc(C(=O)Nc4cc(F)cc(C(=O)OCCN(C)C)c4)cn3)c2)s1` [A-273, 2-(Dimethylamino)ethyl 3-(6-((4-((2-ethyl-4-(6-methylpyridin-2-yl)thiazol-5-yl)oxy)pyridin-2-yl)amino)nicotinamido)-5-fluorobenzoate], in assay [2], the IC50 was over 100 nM. For `CCc1nc(-c2ccccc2)c(Oc2ccnc(Nc3ccc(C(=O)O)cn3)n2)s1` [A-244, 6-((4-((2-Ethyl-4-phenylthiazol-5-yl)oxy)pyrimidin-2-yl)amino)nicotinic acid], the IC50 in assay [2] is over 100 nM. With `CCc1nc(-c2ccccc2)c(Oc2ccnc(Nc3cc(C(N)=O)ccn3)n2)s1` [A-242, 2-((4-((2-Ethyl-4-phenylthiazol-5-yl)oxy)pyrimidin-2-yl)amino)isonicotinamide], in assay [2], the IC50 was over 100 nM.

As to `CNC(=O)c1cccc(Nc2cc(Oc3oc(C4CC4)nc3-c3ccccc3)ccn2)n1` [A-302, 6-((4-((2-Cyclopropyl-4-phenyloxazol-5-yl)oxy)pyridin-2-yl)amino)-N-methylpicolinamide], the IC50 in assay [2] was under 100 nM. Turning to `CCc1nc(-c2ccccc2)c(Oc2ccnc(Nc3ccc(NCCN4CCN(CC)CC4)cn3)c2)s1` [A-211, N^2-(4-((2-Ethyl-4-phenylthiazol-5-yl)oxy)pyridin-2-yl)-N^5-(2-(4-ethylpiperazin-1-yl)ethyl)pyridine-2,5-diamine], the IC50 in assay [2] is under 100 nM. The same measure, in the same setting: for `O=C(O)c1cccc(Nc2cc(Oc3oc(C4CC4)nc3-c3ccccc3)ccn2)n1` [A-301, 6-((4-((2-Cyclopropyl-4-phenyloxazol-5-yl)oxy)pyridin-2-yl)amino)picolinic acid] the value was under 100 nM; for `CCc1nc(-c2ccccc2)c(Oc2ccnc(Nc3ccc(N4CCC(NC)C4)cc3)c2)s1` (stereo not shown) [A-215, 4-((2-Ethyl-4-phenylthiazol-5-yl)oxy)-N-(4-(3-(methylamino)pyrrolidin-1-yl)phenyl)pyridin-2-amine], under 100 nM; for `CCc1nc(-c2ccccc2)c(Oc2ccnc(Nc3ccc(C(N)=O)cn3)n2)s1` [A-245, 6-((4-((2-Ethyl-4-phenylthiazol-5-yl)oxy)pyrimidin-2-yl)amino)nicotinamide], over 100 nM. As for `CCc1nc(-c2ccccc2)c(Oc2ccnc(Nc3ccc(C(=O)NC(C)C)cn3)c2)s1` [A-196, 6-((4-((2-Ethyl-4-phenylthiazol-5-yl)oxy)pyridin-2-yl)amino)-N-isopropylnicotinamide], in assay [2], the IC50 was under 100 nM. Consider `CNC(=O)c1ccnc(Nc2cc(Oc3sc(C4CC4)nc3-c3cccc(C)n3)ccn2)c1` [A-280, 2-((4-((2-Cyclopropyl-4-(6-methylpyridin-2-yl)thiazol-5-yl)oxy)pyridin-2-yl)amino)-N-methylisonicotinamide], for which the IC50 in assay [1] and in assay [2] was under 100 nM in each case. For the compound `CCc1nc(-c2ccccc2)c(Oc2ccnc(Nc3cccc(C(N)=O)c3)n2)s1` [A-243, 3-((4-((2-Ethyl-4-phenylthiazol-5-yl)oxy)pyrimidin-2-yl)amino)benzamide], the IC50 in assay [2] is under 100 nM. Turning to `CNC(=O)c1cccc(Nc2cc(Oc3oc(C4CC4)nc3-c3ccccc3)ccn2)c1` [A-297, 3-((4-((2-Cyclopropyl-4-phenyloxazol-5-yl)oxy)pyridin-2-yl)amino)-N-methylbenzamide], the IC50 in assay [2] is under 100 nM.
